Laboratory results: publication PMC6100113, “Involvement of CYP4F2 in the Metabolism of a Novel Monophosphate Ester Prodrug of Gemcitabine and Its Interaction Potential In Vitro” (Molecules : A Journal of Synthetic Chemistry and Natural …, 2018)

T1: CYP4F2 (Homo sapiens, UniProt P78329)
T1 construct: purchased Corning Gentest
T1 sequence (P78329 5-520): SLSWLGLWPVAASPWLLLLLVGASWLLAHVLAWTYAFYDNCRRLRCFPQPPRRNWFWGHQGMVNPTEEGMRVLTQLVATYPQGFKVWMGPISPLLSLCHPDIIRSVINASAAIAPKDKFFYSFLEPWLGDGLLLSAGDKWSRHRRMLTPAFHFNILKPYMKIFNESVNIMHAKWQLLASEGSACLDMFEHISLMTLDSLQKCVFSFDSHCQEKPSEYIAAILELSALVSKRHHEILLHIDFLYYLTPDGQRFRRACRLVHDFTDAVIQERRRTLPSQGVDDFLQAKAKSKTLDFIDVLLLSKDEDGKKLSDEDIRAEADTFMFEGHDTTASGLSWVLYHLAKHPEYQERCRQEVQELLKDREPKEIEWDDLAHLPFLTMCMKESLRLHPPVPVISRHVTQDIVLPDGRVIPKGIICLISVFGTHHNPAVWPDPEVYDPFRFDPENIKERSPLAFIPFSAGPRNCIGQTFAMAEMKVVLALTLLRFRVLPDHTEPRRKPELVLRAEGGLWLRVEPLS

B1: CYP4F2 (Homo sapiens) (protein)
chain: T1 sequence (P78329 5-520)
notes: purchased Corning Gentest

Legend:
[1] = Metabolite identification by UPLC/Triple TOF MS in human liver microsomes; assay type: in vitro ADME; design: key: √: metabolites were detected by high-resolution mass spectrometry; conditions: Compound-3 10 μM, 1 mg/mL microsomes, NADPH, 60 min, HRMS
Protocol: (§1) For metabolite identification, a higher concentration of Compound-3 (10 μM) was incubated with liver microsomes (1 mg/mL) in the presence of NADPH (1 mM) and primary human hepatocytes at a density of 1 × 10^6 cell/mL. Samples were collected at 0 min and 60 min with the addition of ice-cold acetonitrile. After vortexing and centrifugation, the supernatant was transferred into a new tube and evaporated to dryness. The samples were then reconstituted in 100 μL of water and methanol (v/v, 9:1). An aliquot of 10 μL of reconstituted solution was injected into UPLC/Triple TOF 5600^+ MS for metabolite identification.
(§2) Identification of Compound-3 metabolites was carried out using Acquity UPLC/Triple TOF 5600^+ system. Chromatographic separation for Compound-3 and its metabolites were achieved by an Acquity UPLC HSS T3 column (100 × 2.1 mm i.d., […]; Waters Corp.) maintained at 40 °C. The mobile phase was a mixture of 0.02% formic acid in 5 mM ammonium acetate (A) and methanol (B). The gradient elution was started from 2% B and maintained for 4 min, then increased linearly to 75% B over the next 4 min and maintained for 8 min. […] The flow rate was 0.4 mL/min and the eluent was monitored by UV detection at 280 nm.
(§3) For mass detection, a Triple TOF 5600^+ mass spectrometer (AB Sciex, Framingham, MA, USA) was operated in positive ion electrospray (ES-positive) mode with the source temperature at 500 °C and scan range from m/z 100 to 1000 Da. Other parameters were set as follows: ion spray voltage, 5500 V; decluttering potential, 80 V; curtain gas, 40 psi; ion source gas 1, 55 psi; and ion source gas 2, 50 psi. Collision energies of 25 and 65 eV were used for TOF MS and product ion scans, respectively, and a collision energy spread of 20 was used in the MS/MS analysis. Information-dependent acquisition (IDA), together with real-time multiple mass defect filter, was used to trigger acquisition of MS/MS spectra.

[2] = Metabolite identification by UPLC/Triple TOF MS in human intestinal microsomes; assay type: in vitro ADME; design: key: √: metabolites were detected by high-resolution mass spectrometry; conditions: Compound-3 10 μM, NADPH, 60 min, HRMS
Protocol: as §1, §2, §3

[3] = Metabolite identification by UPLC/Triple TOF MS in rat intestinal microsomes; assay type: in vitro ADME; design: key: √: metabolites were detected by high-resolution mass spectrometry; conditions: Compound-3 10 μM, NADPH, 60 min, HRMS
[4] = Metabolite identification by UPLC/Triple TOF MS in human hepatocytes; assay type: in vitro ADME; design: key: √: metabolites were detected by high-resolution mass spectrometry; conditions: Compound-3 10 μM, 1 × 10^6 cell/mL, 60 min, HRMS
Protocol: as §1, §2, §3

CYP4F2 [5] = biological target: T1, CYP4F2; assay: Reaction phenotyping with recombinant CYP4F2; assay type: in vitro ADME; conditions: Compound-3 1 μM with recombinant CYP4F2 50 nM, NADPH, 37 °C (Figure S2)
Protocol: Compound-3 was incubated separately with human cDNA-expressed cytochrome P450s (CYP1A2, CYP2B6, CYP2C8, CYP2C9, CYP2C19, CYP2D6, CYP3A4, CYP4A11, CYP4F2 and CYP4F3). The incubation mixtures contained individual CYP isoenzymes (50 nM), potassium phosphate buffer (100 mM, pH 7.4), NADPH (1 mM), and Compound-3 (1 µM). The final volume of the incubation mixture was 50 µL. Before the start of the incubation, reaction mixtures were warmed up at 37 °C for 10 min. The reaction was initiated with the addition of NADPH and the incubations were performed at 37 °C in a water bath. […] Control samples without NADPH but substrates were included. The samples were then centrifuged and aliquots of 10 μL of the supernatants were transferred onto LC-MS/MS for the analysis of Compound-3 and M4 (carboxylic acid) levels.
The following are available online. Figure S1. Gemcitabine Formation from Compound-3 Hydrolysis as a function of alkaline phosphatase protein concentrations. Compound-3 (1 μM) was incubated with alkaline phosphatase concentrations ranging from 0.01–0.2 mg/mL at 37 °C (n = 3). Figure S2. Metabolites of Compound-3 in human recombinant CYP4F2. Compound-3 (1 μM) was incubated with human recombinant CYP4F2 (50 nM) in the presence of NADPH at 37 °C (n = 3).

[6] = Metabolite identification by UPLC/Triple TOF MS in rat liver microsomes; assay type: in vitro ADME; design: key: √: metabolites were detected by high-resolution mass spectrometry; conditions: Compound-3 10 μM, 1 mg/mL microsomes, NADPH, 60 min, HRMS
Protocol: as §1, §2, §3

alkaline phosphatase = assay: Hydrolysis of Compound-3 by alkaline phosphatase (gemcitabine formation); assay type: in vitro ADME; design: key to detected in matrix ALP: √: metabolites were detected by high-resolution mass spectrometry; conditions: incubation of Compound-3 with alkaline phosphatase, HRMS
Protocol: Compound-3 was incubated with alkaline phosphatase, and the linearity of gemcitabine formation as a function of time and protein concentration was first examined. The reaction mixtures consisted of alkaline phosphatase, 100 mM phosphate buffer (pH 7.4) and Compound-3 (10 μM). The final volume of the incubation mixture was 200 μL. The mixture was warmed up at 37 °C for 2 min prior to the initiation of the reaction with the addition of the enzyme. At specified time points, 25 μL of the incubation mixtures was added to 100 μL cold acetonitrile containing the internal standard to terminate the reaction. Levels of gemcitabine were determined by LC-MS/MS. […] Compound-3 was tested at concentrations ranging from 0 to 200 μM. Kinetic parameters of Compound-3 in alkaline phosphatase were calculated using GraphPad Prism (Version 6.0, GraphPad Software Inc., San Diego, CA) and nonlinear regression analysis. Equation used was as the following (the Michaelis-Menten equation):V = (Vmax × [S])/(Km + [S])(1) where V is the rate of metabolite formation, Vmax is the maximum velocity, Km is the Michaelis constant (substrate concentration at 0.5 Vmax), and [S] is the substrate concentration.

[7] = system: Compound-3 metabolism in human liver microsomes; assay: Inhibition of Compound-3 metabolism in HLM by selective chemical inhibitors of CYP isozymes; assay type: in vitro ADME; conditions: HLM 0.2 mg/mL, 1 μM Compound-3; HET-0016 1 µM, ketoconazole 1 µM, quercetin 10 µM, other inhibitors at the concentrations of b45
Protocol: Incubation contained 0.2 mg/mL human liver microsomes, 100 mM phosphate buffer (pH 7.4), 1 mM NADPH, 1 μM Compound-3, and inhibitors at specified concentrations. Compound-3 remaining was calculated based on concentrations after incubation in the presence or absence of respective inhibitors.

CYP4F2 [8] = biological target: T1, CYP4F2; assay: CYP4F2-mediated drug interaction (inhibition of CYP4F2); assay type: in vitro ADME; conditions: substrate Compound-3 1 μM, CYP4F2 10 nM, 10 min, M4 formation; read-out: IC50, inhibition of CYP4F2 mediated metabolism of Compound-3
Protocol: CYP4F2-mediated drug interactions were examined in two separate setting: pafuramidine as the substrate and Compound-3 as the inhibitor; and Compound-3 as the substrate and pafuramidine as the inhibitor. The reaction system contained 10 nM CYP4F2, 100 mM phosphate buffer (pH 7.4), 1 mM NADPH, and substrate (pafuramidine 1.5 μM or Compound-3 1 μM). Inhibitor (Compound-3 or pafuramidine) concentrations ranged from 0 to 10,000 nM. The incubation time was 5 min for pafuramidine and 10 min for Compound-3. Incubation temperature was 37 °C. LC-MS/MS analysis was performed as described above for the levels of DB775 or M4 (carboxylic acid metabolite of Compound-3).

[9] = substrate: CCCCCCCCCCCCCCCCCCOCCOP(=O)(O)OCC1OC(n2ccc(N)nc2=O)C(F)(F)C1O; assay: Formation kinetics of M4 (carboxylic acid) from Compound-3 by CYP4F2; assay type: in vitro ADME, human; conditions: other: CYP4F2 10 nM, 10 min, substrate inhibition model, estimated; pH 7.4; 37.0 °C
Protocol: To investigate the formation kinetics of carboxylic acid metabolite (M4) from Compound-3, varying concentrations of Compound-3 (0–10 µM) were incubated with 10 nM CYP4F2 and 1 mM NADPH in 100 mM phosphate buffer (pH 7.4). The reactions were carried at 37 °C for 10 min and terminated with the addition of ice-cold acetonitrile containing the internal standard. Samples were then centrifuged, and aliquots of 10 μL of the supernatants were analyzed by LC-MS/MS for M4 levels.
Kinetic parameters of Compound-3 in recombinant human CYP4F2 were calculated using Enzyme Kinetics Modules of SigmaPlot (Version 14.0, Systat Software, San Jose, CA, USA). An uncompetitive substrate inhibition equation was also used:V = (Vmax × [S])/{Km + [S] × (1 + [S]/Ki)}(2) where Ki is the disassociation constant describing the inhibitor-enzyme interaction.

Molecule	detected in matrix HLM [1]	detected in matrix HIM [2]	detected in matrix RIM [3]	detected in matrix Human Hepatocytes [4]	incubation time at which metabolite formation peaked (CYP4F2 [5]) [min]	other results
Nc1ccn(C2OC(COP(=O)(O)OCCOCCCCCCCCCCCCCCCCCC=O)C(O)C2(F)F)c(=O)n1 (stereo not shown) [Compound M2]	√	√	√	√	5	–
Nc1ccn(C2OC(COP(=O)(O)OCCOCCCCCCCCCCCCCCCCCCO)C(O)C2(F)F)c(=O)n1 (stereo not shown) [Compound M3]	√	√	√	√	5	detected in matrix RLM [6]: √
Nc1ccn(C2OC(COP(=O)(O)OCCOCCCCCCCCCCCCCCCCCC(=O)O)C(O)C2(F)F)c(=O)n1 (stereo not shown) [Compound M4]	√	√	√	√	60	detected in matrix RLM [6]: √
Nc1ccn([C@@H]2O[C@H](CO)[C@@H](O)C2(F)F)c(=O)n1 [Gemcitabine, 2′,2′-difluorodeoxycytidine]	–	–	–	–	–	detected in matrix ALP (alkaline phosphatase): √
CC(=O)N1CCN(c2ccc(OCC3COC(Cn4ccnc4)(c4ccc(Cl)cc4Cl)O3)cc2)CC1 (stereo not shown) [ketoconazole]	–	–	–	–	–	inhibition of Compound-3 metabolism in HLM [7]: moderate inhibition
CONC(=N)c1ccc(-c2ccc(-c3ccc(C(=N)NOC)cc3)o2)cc1 [pafuramidine, reference compound]	–	–	–	–	–	IC50 (CYP4F2 [8]): 0.24 µM
O=c1c(O)c(-c2ccc(O)c(O)c2)oc2cc(O)cc(O)c12 [quercetin]	–	–	–	–	–	inhibition of Compound-3 metabolism in HLM [7]: moderate inhibition
B1	–	–	–	–	–	Km [9]: 0.69 µM
